In patent US11286268B1, “EIF4E-inhibiting compounds and methods” (EFFECTOR THERAPEUTICS, INC., priority 2019, dated 2022) one finds IC50 data, which are given here for 36 molecules.

Read-outs that look alike come from different tables or passages of the source.

The experiment has as its target recombinant eIF4E (Homo sapiens (Human), UniProt P06730). In words: Fluorescence polarization competition assay for eIF4E binding potency. The gist of the method: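 IC50 derived from fluorescence polarization over an 8-point, 3-fold compound series after 30 min room-temperature equilibration in the dark. Mix: eIF4E 75 nM pre-bound 5 min to 20 nM EDA-m^7GDP-ATTO-550; buffer 20 mM Tris pH 7.5, 100 mM NaCl, 1 mM DTT, 0.02% Tween-20; DMSO 1%.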
(Fluorescence polarisation rises when a labelled molecule tumbles more slowly, as on binding a larger partner.)

[1] abbreviates: fluorescence polarization competition, 75 nM recombinant eIF4E, 20 nM EDA-m7GDP-ATTO-550, IC50 class, read-out: elF4E FP.
[2] abbreviates: inhibition of eIF4E/EDA-m7GDP-ATTO-550 binding by 50%, Table 4B calculated values, read-out: IC50.
Setting [3] is: inhibition of eIF4E/EDA-m7GDP-ATTO-550 binding, calculated IC50 values, Table 4B, read-out: IC50.

Sequence of recombinant eIF4E (P06730 whole entry): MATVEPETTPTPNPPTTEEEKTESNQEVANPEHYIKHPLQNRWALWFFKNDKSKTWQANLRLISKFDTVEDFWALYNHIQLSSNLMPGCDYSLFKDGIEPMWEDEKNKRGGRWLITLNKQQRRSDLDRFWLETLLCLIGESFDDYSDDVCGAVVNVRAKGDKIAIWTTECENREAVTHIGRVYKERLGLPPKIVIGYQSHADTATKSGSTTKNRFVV

For `Cc1cc(-c2cc(Cl)ccc2OCCn2c(C)nc3cc(C(F)(F)F)c(C)c(C#N)c3c2=O)c2scc(C(=O)O)c2n1` [compound 363], the IC50 was less than 50 nM under setting [1] and 22.8 nM under setting [2].
As to `COc1c(CN(C)C)cc2nc(C)n(CCOc3ccc(Cl)cc3-c3cc(C)nc4c(C(=O)O)csc34)c(=O)c2c1C#N` [compound 369], the IC50 by setting is: under setting [1], less than 50 nM; under setting [2], 1.32 nM.
For `COC(=O)c1csc2c(-c3cc(Cl)ccc3OCCn3c(C)nc4cc(C(F)(F)F)c(N5CCN(C6CC6)CC5)c(C#N)c4c3=O)ccnc12` [compound 1206], the IC50 runs as follows: under setting [1], less than 50 nM; under setting [3], 32.5 nM.
For `Cc1nc2cc(C(F)(F)F)c(CN3CCCC3)c(C#N)c2c(=O)n1CCOc1ccc(Cl)cc1-c1ccnc2c(C(=O)O)csc12` [compound 526], the IC50 is, setting by setting: under setting [1], 50 to 1000 nM; under setting [2], 64.1 nM.
With `Cc1nc2cnc(N(C)C3CCN(C4(C(F)F)COC4)CC3)c(C#N)c2c(=O)n1CC#Cc1ccc(Cl)cc1-c1ccnc2c(C(=O)O)csc12` [compound 1182], the IC50 is less than 50 nM under setting [1] and 13.6 nM under setting [2].
For `Cc1nc2cnc(N(C)C3CCN(C4CC(F)(F)C4)CC3)c(C#N)c2c(=O)n1CC#Cc1ccc(Cl)cc1-c1ccnc2c(C(=O)NS(=O)(=O)CC#N)csc12` [compound 1825], under setting [3], the IC50 is 17.1 nM.
Consider `Cc1nc2cnc(C3CC3)c(C#N)c2c(=O)n1CCOc1ccc(Cl)cc1-n1cnc2c(C(=O)O)cccc21` [compound 756], for which the IC50 under setting [1] was less than 50 nM and the IC50 under setting [2] is 43.2 nM.
As to `O=C(O)c1cc(-c2cc(Cl)ccc2OCCn2nnc3ccccc3c2=O)ccn1` [compound 2014], the IC50 under setting [3] is 12200 nM.
With `Cc1cc(-c2cc(Cl)ccc2OCCn2c(C)nc3c(C)nc(-c4ccccc4Cl)c(C#N)c3c2=O)c2scc(C(=O)O)c2n1` [compound 482], the IC50 under setting [1] is less than 50 nM.
With `O=C(O)c1cccc(-c2cc(Cl)ccc2OCCn2c(C(F)F)nc3cncc(Br)c3c2=O)c1` [compound 2010], under setting [3], the IC50 was 1190 nM.
With `Cc1cc(-c2cc(Cl)ccc2OCCn2c(C)nc3c(C)nc(-c4cc(F)ccc4Cl)c(C#N)c3c2=O)c2scc(C(=O)O)c2n1` [compound 999], the IC50 is, setting by setting: under setting [1], less than 50 nM; under setting [2], 16.3 nM.
On the same counts, the results for `Cc1nc2cnc(N3CC4(CN(CC(F)(F)F)C4)C3)c(C#N)c2c(=O)n1CCOc1ccc(Cl)cc1-c1ccnc2c(C(=O)O)csc12` [compound 840] are less than 50 nM and 10.4 nM.
For the molecule `Cc1nc2cnc(N(C)C3CCN([C@H]4C[C@@H]4C(F)(F)F)CC3)c(C#N)c2c(=O)n1CC#Cc1ccc(Cl)cc1-c1ccnc2c(C(=O)O)csc12` [compound 1724], the IC50 under setting [3] is 4.07 nM.
With `Cc1nc2cnc(-c3cccc4c3CCN(CC(F)F)C4)c(C#N)c2c(=O)n1CC#Cc1ccc(Cl)cc1-c1ccnc2c(C(=O)O)csc12` [compound 1558], the IC50 under setting [3] was 69 nM.
As to `Cc1nc2cc(C(F)F)cc(C#N)c2c(=O)n1CCOc1ccc(Cl)cc1-c1cccc(C(=O)O)c1` [compound 153], the IC50 is 50 to 1000 nM under setting [1] and 54 nM under setting [2].
For `Cc1nc2cnc(N3CCN(CC(F)F)C4CC43)c(C#N)c2c(=O)n1CCOc1ccc(Cl)cc1-c1ccnc2c(C(=O)O)csc12` (centres unmarked) [compound 824] the same measures were less than 50 nM and 13.6 nM.
On the same counts, the results for `Cc1cc(-c2cc(Cl)ccc2OCCn2c(C)nc3cc(C(F)(F)F)c(-c4cncc(F)c4)c(C#N)c3c2=O)c2scc(C(=O)O)c2n1` [compound 342] are less than 50 nM and 47.4 nM.
For the molecule `Cc1nc2cnc(N3CCN(C)CC3C)c(C#N)c2c(=O)n1CCOc1ccc(Cl)cc1-c1ccnc2c(C(=O)O)csc12` (centres unmarked) [compound 1335], under setting [3], the IC50 was 12.8 nM.
The same measure, in the same setting: in the case of `Cc1nc2cnc(N3CCN(C4(COC(F)F)CC4)CC3)c(C#N)c2c(=O)n1CC#Cc1ccc(Cl)cc1-c1ccnc2c(C(=O)O)csc12` [compound 1510] it was 20.1 nM.
Take `Cn1ccc2ncn(CCOc3ccc(Cl)cc3-c3cccc(C(=O)O)c3)c(=O)c21` [compound 69]: the IC50 runs as follows: under setting [1], more than 1000 nM; under setting [2], 26800 nM.
For `Cc1cc(-c2cc(Cl)ccc2OCCn2c(C)nc3cc(C(F)(F)F)c(-c4ccccc4CO)nc3c2=O)c2scc(C(=O)O)c2n1` [compound 346] the same measures were less than 50 nM and 18.1 nM.
On to `Cc1nc2cnc(N(C)CCCN(C)CC(F)(F)F)c(C#N)c2c(=O)n1CC#Cc1ccc(Cl)cc1-c1ccnc2c(C(=O)O)csc12` [compound 1497], for which the IC50 under setting [3] was 12.9 nM.
In the case of `Cc1nc2cc(C(F)(F)F)cc(C#N)c2c(=O)n1CCOc1ccc(Cl)cc1-c1cc(Cl)nc2c(C(=O)O)csc12` [compound 444], the IC50 is, setting by setting: under setting [1], less than 50 nM; under setting [2], 30.8 nM.
On the same counts, the results for `COC1CN(c2c(C(F)(F)F)cc3nc(C)n(CCOc4ccc(Cl)cc4-c4cc(C)nc5c(C(=O)O)csc45)c(=O)c3c2C#N)C1` [compound 1009] are less than 50 nM and 6.23 nM.
In the case of `Cc1nc2cnc(N3CCN(C4(C#N)CC4)CC3)c(C#N)c2c(=O)n1CC#Cc1ccc(Cl)cc1-c1ccnc2c(C(=O)O)csc12` [compound 1368], the IC50 under setting [3] is 19.9 nM.
Consider `Cc1nc2cc(C(F)(F)F)cc(C#N)c2c(=O)n1CCOc1ccnnc1-c1ccnc2c(C(=O)O)csc12` [compound 453], for which the IC50 is, setting by setting: under setting [1], more than 1000 nM; under setting [2], 2320 nM.
On the same counts, the results for `Cc1cc(-c2cc(Cl)ccc2C#CCn2c(C)nc3cc(C(F)(F)F)c(Cl)c(C#N)c3c2=O)c2scc(C(=O)O)c2n1` [compound 561] are 50 to 1000 nM and 56.2 nM.
For `Cc1cc(-c2cc(Cl)ccc2OCCn2c(C)nc3cc(C(F)(F)F)c(N4CC(C)(O)C4)c(C#N)c3c2=O)c2scc(C(=O)O)c2n1` [compound 1055] the same measures were less than 50 nM and 11.7 nM.
`Cc1nc2ccc(C(F)F)c(C#N)c2c(=O)n1CCOc1ccc(Cl)cc1-c1cccc(C(=O)O)c1` [compound 62]: the IC50 is, setting by setting: under setting [1], less than 50 nM; under setting [2], 24.9 nM.
For `Cc1nc2cnc(N3CCN(C4(CF)CC4)CC3)c(C#N)c2c(=O)n1CCOc1ccc(Cl)cc1-c1ccnc2c(C(=O)O)csc12` [compound 1336], the IC50 under setting [3] is 13 nM.
In the case of `Cc1nc2cnc(N(C)C3CCN(C4(C)COC4)CC3)c(C#N)c2c(=O)n1CC#Cc1ccc(Cl)cc1-c1ccnc2c(C(=O)O)csc12` [compound 1118], the IC50 runs as follows: under setting [1], less than 50 nM; under setting [2], 14 nM.
Regarding `Cc1cc(-c2cc(Cl)ccc2OCCn2c(C)nc3c(OC(F)F)ncc(C#N)c3c2=O)c2scc(C(=O)O)c2n1` [compound 604], the IC50 under setting [1] lay in the range of 50 to 1000 nM and the IC50 under setting [2] was 70.7 nM.
On the same counts, the results for `C#Cc1c(C(=O)O)cccc1-c1cc(Cl)ccc1OCCn1cnc2cnc(C#N)cc2c1=O` [compound 127] are 50 to 1000 nM and 77 nM.
Consider `Cc1nc2cnc(N(C)C3CCN(C4CC4)C4(CC4)C3)c(C#N)c2c(=O)n1CC#Cc1ccc(Cl)cc1-c1ccnc2c(C(=O)O)csc12` (centres unmarked) [compound 1496], for which, under setting [3], the IC50 is 32.5 nM.
Regarding `Cc1nc2cnc(C3CC3)c(C#N)c2c(=O)n1CC#Cc1ccc(Cl)cc1-c1ccnc2c(C(=O)O)csc12` [compound 384], the IC50 under setting [1] is less than 50 nM and the IC50 under setting [2] is 20.9 nM.
Regarding `Cc1nc2cnc(N(C)C3CCN(C(CF)CF)CC3)c(C#N)c2c(=O)n1CCOc1ccc(Cl)cc1-c1ccnc2c(C(=O)O)csc12` [compound 1432], the IC50 under setting [3] was 21.2 nM.
